Reference: US20250170212A1, “COMPOSITIONS AND METHODS OF TREATING AMYOTROPHIC LATERAL SCLEROSIS (ALS) AND RELATED DISORDERS” (BIOINCEPT, LLC, priority 2022, published 2025)

What was measured:
Assay type in all cases: in vivo, mouse
IL-12 = assay: Serum cytokine analysis, multiplex ELISA; conditions: serum collected weekly; compared to other groups
Procedure: (§1) Samples were collected every week, starting from day of graft transplantation (day 0), 100 μl of blood from mouse tail. Blood was stored 1 h in room temperature, and overnight in +4° C. Serum was gently aspirated, and centrifuged 10 min with 2000 RPM to separate blood morphotic bodies. Purified serum was stored in −80° C. until further analysis. Multiplex ELISA 23-cytokine kit (M60009RDPD) was obtained from Bio-Rad (Bio-Plex Pro Mouse Cytokine 23-plex Assay #M60009RDPD, Hercules, Bio-Rad, CA, USA, RRID: AB_2857368) and performed according to instructions. 50 μl of diluted in sample diluent, 1:4 serum samples and diluted at range 1:10-1:20. Measurement standards were used, diluted 9 times according to the protocol and added at template plate. Vortexed beads were added to the assay 96-well plate. Plate was again washed 3 times with wash buffer, then from template plate, 50 μl of samples, standards and blank were transferred to measurement plate with multichannel pipette. Plate was sealed with tape and incubated 30 min. After this time, plate was washed 3 times. 25 μl of detection antibody was added to the wells with multichannel pipette. Plate was sealed and incubated for 30 min. and next washed 3 times using wash buffer. […] Beads were resuspended with 125 μl of assay buffer and analysis was performed with Bio Plex 200 reader.
(§2) All quantifications were performed including the manual cell counts in a blinded manner. The NeuN and Ibal were counted as positive cells in the ROI (see above) as previously reported. The number of cells was determined by unbiased counting of positive cells. […] Differences between groups were analyzed using a repeated measure ANOVA model with a fixed effect for the group, of the time and a random intercept for the mouse. In a second, more explorative, approach for each group the time when the physical activity was first measured below a certain threshold was determined. […] The clinically relevant threshold was determined according to previous observations and defined as value 0.9 for the Wire Test. […] The statistical significance at p<0.05 was then determined.

IL-1α = assay: Serum cytokine analysis, multiplex ELISA; conditions: serum collected weekly; compared to Injury and mGRPs groups
Procedure: as §1, §2

[1] = system: Iba1+ cells (microglial activation); assay: Immunohistochemistry of microglial cells in brainstem motor nuclei; conditions: facial and hypoglossal motor nuclei; compared to Injury
Procedure: At the end of experiment, mice were subjected to full body perfusion with 20% sucrose and 10% buffered formalin suitable for histology assays (Sigma Aldrich, St.Louis, MO, USA). Mice were decapitated and incubated in formalin for 24 h. Following the tissues (brain and spinal cord) were isolated, paraffin fixed for further analyses. After brain removal, the tissue was fixed in a formaldehyde solution (4%) for 2-4 hours at RT followed by 4° C. for a total time of 24-48 hours. Fixed tissues were embedded in paraffin and finally sectioned into 7 μm slices. […]
Assessment of neuronal and microglial positive cells were performed in the region of interest (ROI). […] The images were analyzed and reconstructed using Image J (US National Institutes of Health).
All quantifications were performed including the manual cell counts in a blinded manner. The NeuN and Ibal were counted as positive cells in the ROI (see above) as previously reported. The number of cells was determined by unbiased counting of positive cells. […] Differences between groups were analyzed using a repeated measure ANOVA model with a fixed effect for the group, of the time and a random intercept for the mouse. In a second, more explorative, approach for each group the time when the physical activity was first measured below a certain threshold was determined. […]

MVRIKPGSANKPSDD [sPIF]
peripheral IL-12 cytokine level (IL-12): plateaued at day 28
peripheral IL-1α cytokine peak (IL-1α): decreased IL-1α peak significantly
number of Iba1+ microglial cells (neuroinflammation) [1]: significant prevention of neuroinflammation
